Measurements from the NIST ThermoML archive (doi:10.1021/je900218z).
Where “and” joins values, the source holds several entries; their conditions need not be identical. Equal entries are not always repeated.

Assay: mn = molality of the nth substance listed, in mol/kg
Conditions: 298.15 K, 101 kPa, Liquid

O=S(=O)([O-])[O-].[Na+].[Na+] [sodium sulfate] + O
Conditions	mass density
m1 = 0.2	1021.93 kg/m3
m1 = 0.4999	1057.3 kg/m3 and 1057.32 kg/m3 and 1057.31 kg/m3
m1 = 0.6999	1079.92 kg/m3 and 1079.94 kg/m3 and 1079.93 kg/m3
m1 = 0.9868	1111.12 kg/m3
m1 = 0.9979	1112.28 kg/m3
m1 = 0.9999	1112.48 kg/m3
m1 = 1.196	1133.04 kg/m3
m1 = 1.2	1133.46 kg/m3 and 1133.45 kg/m3
